Reference: patent US9504671B2, “Pharmaceutical compositions of spiro-oxindole compound for topical administration and their use as therapeutic agents” (Xenon Pharmaceuticals Inc., priority 2010, dated 2016)

Test system: animal models
Test: animal models, oral dosing (earlier studies)
Format: in vivo
Settings: oral dose of 25 mg/Kg, previous studies
Source text: For example, the mildly painful stimuli from scratching are effective in abolishing the itch sensation. In contrast, analgesics such as opioids can generate severe pruritis. The antagonistic interaction between pain and itch can be exploited in pruritis therapy, and current research concentrates on the identification of common targets for future analgesic and antipruritis therapy. […] Accordingly, COMPOUND A, as an enantiomer or a pharmaceutically acceptable salt thereof, can also be useful for treating pruritis.
Following paw withdrawal baseline measurements, animals were randomly divided into 4 different test groups (N=8 animals/group), including a vehicle control group for oral dosage, a vehicle control group for topical dosage, and two treatment groups. For the oral dosage groups, animals were dosed by oral gavages after baseline measurement. […] For the topical dosage groups, 50 mg of the test composition was applied on the ipsilateral ankle and foot. […] Von Frey withdrawal thresholds were measured as the mean of several independent determinations made within 1-2 minutes of each other on the affected paw of each animal. Withdrawal measurements were taken 60 minutes post dosing for the oral dosage group and 30 minutes post-dosing for the topical dosage group, representing their respective peak efficacy time points as determined in previous studies.

O=C1N(Cc2ccc(C(F)(F)F)o2)c2ccccc2[C@]12COc1cc3c(cc12)OCO3 [COMPOUND A, (S)-1′-{[5-(trifluoromethyl)furan-2-yl]methyl}spiro[furo[2,3-f][1,3]benzodioxole-7,3′-indol]-2′(1′H)-one] was tested, and the “reversal of pain response” value was “approximately half-maximal reversal of pain response”.
